Assay [1] concerns patient. Nature of the assay: Medication history of a patient with facial burning and numbness following trigeminal rhizotomy. In kind it is in vivo, human. The following applies: single patient; facial burning and numbness after rhizotomy for trigeminal neuralgia. The procedure: In a similar manner as that described above for a healthy volunteer, we examined fMRI activation in a patient who had facial burning and numbness following trigeminal rhizotomy one year previously for trigeminal neuralgia. Medications, including gabapentin and tegretol, had been unhelpful. Careful questioning and psychophysical evaluation was performed. […] They also had decreased warm and cold sensation on the affected side vs. the intact side. They underwent functional neuroimaging for thermal stimuli applied to the V2 and V3 distributions on the right and left. FIGS. 3A-3E show the results of cortical activation from this patient. There was a decrease in activation to a 45° C. stimulus applied to the affected area and an apparent increase in signal for the same stimulus applied to the ipsilateral V3 distribution.

Assay [2] deals with opioid naïve individuals. The experiment in a line: fMRI response to morphine in opioid naïve individuals. In kind it is in vivo, human. From the text:
Some of these have an oppositely valenced signal to that observed for aversive painful stimuli. […] This observation is in counter distinction to that observed for cortical activation by painful stimuli (see above).

Assay [3] relates to healthy human volunteers. The text has this: We also investigated the effects of the general anesthetic agent propofol on cerebral structures involved in the processing of vibrotactile information. Using positron emission tomography (PET) and the H(2)(15)O bolus technique, we measured regional distribution of cerebral blood flow (CBF) in eight healthy human volunteers. They were scanned under five different levels of propofol anesthesia. Using a computer-controlled infusion, the following plasma levels of propofol were targeted: Level W (Waking, 0 microg/ml), Level 1 (0.5 microg/ml), Level 2 (1.5 microg/ml), Level 3 (3.5 microg/ml), and Level R (Recovery). At each level of anesthesia, two 3-min scans were acquired with vibrotactile stimulation of the right forearm either on or off. The level of consciousness was evaluated before each scan by the response of the subject to a verbal command.

Consider 4 compounds from patent US20110152249A1, “EVALUATING CENTRAL NERVOUS SYSTEM” (THE GENERAL HOSPITAL CORPORATION, priority 2004, published 2011).

Read-outs that look alike come from different tables or passages of the source.

Consider `NCC1(CC(=O)O)CCCCC1` [gabapentin], for which, in assay [1], the “clinical benefit of medication” value is reported as “unhelpful”.
As for `CN1CC[C@]23c4c5ccc(O)c4O[C@H]2[C@@H](O)C=C[C@H]3[C@H]1C5` [morphine], the “fMRI activation in subcortical structures” value in assay [2] is “activation in deep subcortical structures including those involved in reward”. For the same compound, the “fMRI signal in the SI cortex” value in assay [2] (low-dose morphine) is on record as “decrease in signal in SI”.
Turning to `CC(C)c1cccc(C(C)C)c1O` [propofol], the level of consciousness result in assay [3] (Level 1, target plasma 0.5 microg/ml) is “slightly drowsy”; in assay [3] (Level 2, target plasma 1.5 microg/ml), “slurred speech and slow response”; in assay [3] (Level 3, target plasma 3.5 microg/ml), “not responding at all”. The “vibration-induced increases in rCBF in the primary and secondary somatosensory cortex” value in assay [3] (Level 1 through 3 (0.5-3.5 microg/ml target plasma), vibrotactile stimulation of right forearm) is given as “suppressed vibration-induced increases in rCBF”. The “thalamic rCBF response to vibrotactile stimulation” value in assay [3] (Level 3 = 3.5 microg/ml target plasma, volunteers lost consciousness) is on record as “abolished only at Level 3”. Moreover, in assay [3] (during anesthesia, target plasma levels 0.5, 1.5, 3.5 microg/ml), the “rCBF in the thalamus and in visual, parietal, and prefrontal cortical regions” value is listed as “reduced in a dose-dependent manner rCBF”.
With `NC(=O)N1c2ccccc2C=Cc2ccccc21` [tegretol], the “clinical benefit of medication” value in assay [1] is reported as “unhelpful”.
